# Entries after “also recorded” stand apart in the source; their conditions may differ. Like-named read-outs stand apart in the source and are kept apart here.
# Key:
# [1] = test system: NMDA receptors containing the NR2C or NR2D subunit; experiment: Potentiation of NR2C- or NR2D-containing NMDA receptors; assay type: cell-based; conditions: read-out: EC50 for enhancement of receptor responses; abstract summary value
# NR1/NR2C receptors [2] = molecular target: T1, NR1/NR2C receptors (Rattus norvegicus, UniProt Q00961); experiment: Two-electrode voltage-clamp, recombinant NR1/NR2C in Xenopus oocytes; assay type: cell-based; conditions: for Slope: Control (no CIQ)
# [3] = test system: NR2A-(2D L+M1e) chimeric receptor; experiment: Oocyte recording of chimera NR2A-; assay type: cell-based, rat; conditions: 10 μM CIQ plus 100 μM glutamate and 30 μM glycine
# [4] = test system: 2A-(2D L+S1M1M2M3S2) chimeric receptor; experiment: Oocyte recording of chimera 2A-; assay type: cell-based, rat; conditions: 10 μM CIQ plus 100 μM glutamate and 30 μM glycine
# [5] = test system: NR2A with ATD-S1 linker (L) of NR2D; experiment: Oocyte recording of NR2A with NR2D ATD-S1 linker; assay type: cell-based, rat; conditions: oocytes
# NR1/NR2C receptors [6] = molecular target: NR1/NR2C receptors (Rattus norvegicus, UniProt P35439+Q00961); experiment: Whole-cell voltage-clamp, NR1/NR2C in HEK 293 cells; assay type: cell-based
# NR1/NR2C receptors [7] = molecular target: T1, NR1/NR2C receptors; experiment: as above; assay type: cell-based
# NR1/NR2D receptors [8] = molecular target: T2, NR1/NR2D receptors (Rattus norvegicus, UniProt Q62645); experiment: Single channel recording, outside-out patches with NR1/NR2D; assay type: cell-based; conditions: 10 μM CIQ
# GluR3 receptor = experiment: Two-electrode voltage-clamp, GluR3 in oocytes; assay type: cell-based; conditions: 10 μM CIQ, 100 μM glutamate
# [9] = test system: NR1/NR2A*/NR2C triheteromeric receptors; experiment: Triheteromeric NMDA receptors in oocytes, NR1/NR2A*/NR2C; conditions: 10 μM CIQ; 10 mM glutamate, 100 μM glycine, 1 mM Mg2+
# GluR2 receptor = experiment: Two-electrode voltage-clamp, GluR2 in oocytes; assay type: cell-based; conditions: 10 μM CIQ, 100 μM glutamate
# [10] = test system: 2A-(2D L+S1M1) chimeric receptor; experiment: Oocyte recording of chimera 2A-; assay type: cell-based, rat; conditions: 10 μM CIQ plus 100 μM glutamate and 30 μM glycine
# [11] = test system: 2A-(2D L+S1M1b) chimeric receptor; experiment: Oocyte recording of chimera 2A-; assay type: cell-based, rat; conditions: 10 μM CIQ plus 100 μM glutamate and 30 μM glycine
# [12] = test system: native NMDA receptors in CA1 hippocampal pyramidal neurons; assay type: cell-based, rat; conditions: 20 μM CIQ; pressure-applied NMDA and glycine
# [13] = Maximum solubility by nephelometer; assay type: physicochemical; conditions: kinetic from dmso stock
# NR1/NR2B receptors [14] = experiment: Two-electrode voltage-clamp, recombinant NR1/NR2B in Xenopus oocytes; assay type: cell-based, rat
# NR1/NR2D receptors [15] = molecular target: T2, NR1/NR2D receptors; experiment: Two-electrode voltage-clamp, recombinant NR1/NR2D in Xenopus oocytes; assay type: cell-based; conditions: for Slope: Control (no CIQ)
# [16] = test system: 2D-(2A ATD+L) chimeric receptor; experiment: Oocyte recording of chimera 2D-; assay type: cell-based, rat; conditions: oocytes
# [17] = test system: native NMDA receptors in subthalamic neurons; assay type: cell-based, rat
# GluR4 receptor = experiment: Two-electrode voltage-clamp, GluR4 in oocytes; assay type: cell-based; conditions: 10 μM CIQ, 100 μM glutamate
# [18] = test system: NR2A(I567T) with linker (L) between NR2D ATD and S1; experiment: Oocyte recording of NR2A; assay type: cell-based, rat; conditions: 10 μM CIQ; oocytes
# NR1/NR2A* receptors = experiment: Oocyte recording of NR1/NR2A*; conditions: oocytes; triheteromeric recording conditions
# [19] = test system: NR1/NR2A*/NR2B triheteromeric receptors; experiment: Triheteromeric NMDA receptors in oocytes, NR1/NR2A*/NR2B; conditions: 10 μM CIQ; 10 mM glutamate, 100 μM glycine, 1 mM Mg2+
# NR1/NR2D(T592I) = experiment: Oocyte recording of mutant NR1/NR2D; assay type: cell-based, rat; conditions: oocytes
# NR1/NR2B receptors [20] = experiment: Whole-cell voltage-clamp, NR1/NR2B in HEK 293 cells; assay type: cell-based, rat; conditions: 20 μM CIQ
# [21] = test system: 2D-(2A L) chimeric receptor; experiment: Oocyte recording of chimera 2D-; assay type: cell-based, rat; conditions: oocytes
# kainate (GluR6) receptor = experiment: Two-electrode voltage-clamp, kainate receptor GluR6 in oocytes; assay type: cell-based; conditions: 10 μM CIQ; 100 μM glutamate; concanavalin-A pretreated oocytes
# [22] = test system: 2A-(2D L+S1M1c) chimeric receptor; experiment: Oocyte recording of chimera 2A-; assay type: cell-based, rat; conditions: 10 μM CIQ plus 100 μM glutamate and 30 μM glycine
# [23] = test system: NR1/NR2A*/NR2D triheteromeric receptors; experiment: Triheteromeric NMDA receptors in oocytes, NR1/NR2A*/NR2D; conditions: 10 μM CIQ; 10 mM glutamate, 100 μM glycine, 1 mM Mg2+
# NR1/NR2A receptors [24] = experiment: Whole-cell voltage-clamp, NR1/NR2A in HEK 293 cells; assay type: cell-based, rat; conditions: concentration-effect relationship
# NR1/NR2D receptors [25] = molecular target: T2, NR1/NR2D receptors; experiment: Whole-cell voltage-clamp, NR1/NR2D in HEK 293 cells; assay type: cell-based
# AMPA (GluR1) receptor = experiment: Two-electrode voltage-clamp, AMPA receptor GluR1 in oocytes; assay type: cell-based; conditions: 10 μM CIQ, 100 μM glutamate
# [26] = test system: NR2A with residues 590-594 of NR2D; experiment: Oocyte recording of NR2A with NR2D residues 590-594 alone; assay type: cell-based, rat; conditions: oocytes
# NR1/NR2A receptors [27] = experiment: Two-electrode voltage-clamp, recombinant NR1/NR2A in Xenopus oocytes; assay type: cell-based, rat
# GluR5 receptor = experiment: Two-electrode voltage-clamp, GluR5 in oocytes; assay type: cell-based; conditions: 10 μM CIQ; 100 μM glutamate; concanavalin-A pretreated oocytes
# [28] = 10 μM CIQ plus 100 μM glutamate and 30 μM glycine
# [29] = 10 μM CIQ in 100 μM glutamate and 30 μM glycine, HEK 293, 23°C
# [30] = HEK 293 cells, single exponential
# [31] = following pre-application of CIQ, HEK 293
# [32] = read-out: agonist EC50, + 20 μM CIQ
# [33] = read-out: agonist EC50, Control (no CIQ)
# T1 sequence (Q00961 20-1237, other chains not shown): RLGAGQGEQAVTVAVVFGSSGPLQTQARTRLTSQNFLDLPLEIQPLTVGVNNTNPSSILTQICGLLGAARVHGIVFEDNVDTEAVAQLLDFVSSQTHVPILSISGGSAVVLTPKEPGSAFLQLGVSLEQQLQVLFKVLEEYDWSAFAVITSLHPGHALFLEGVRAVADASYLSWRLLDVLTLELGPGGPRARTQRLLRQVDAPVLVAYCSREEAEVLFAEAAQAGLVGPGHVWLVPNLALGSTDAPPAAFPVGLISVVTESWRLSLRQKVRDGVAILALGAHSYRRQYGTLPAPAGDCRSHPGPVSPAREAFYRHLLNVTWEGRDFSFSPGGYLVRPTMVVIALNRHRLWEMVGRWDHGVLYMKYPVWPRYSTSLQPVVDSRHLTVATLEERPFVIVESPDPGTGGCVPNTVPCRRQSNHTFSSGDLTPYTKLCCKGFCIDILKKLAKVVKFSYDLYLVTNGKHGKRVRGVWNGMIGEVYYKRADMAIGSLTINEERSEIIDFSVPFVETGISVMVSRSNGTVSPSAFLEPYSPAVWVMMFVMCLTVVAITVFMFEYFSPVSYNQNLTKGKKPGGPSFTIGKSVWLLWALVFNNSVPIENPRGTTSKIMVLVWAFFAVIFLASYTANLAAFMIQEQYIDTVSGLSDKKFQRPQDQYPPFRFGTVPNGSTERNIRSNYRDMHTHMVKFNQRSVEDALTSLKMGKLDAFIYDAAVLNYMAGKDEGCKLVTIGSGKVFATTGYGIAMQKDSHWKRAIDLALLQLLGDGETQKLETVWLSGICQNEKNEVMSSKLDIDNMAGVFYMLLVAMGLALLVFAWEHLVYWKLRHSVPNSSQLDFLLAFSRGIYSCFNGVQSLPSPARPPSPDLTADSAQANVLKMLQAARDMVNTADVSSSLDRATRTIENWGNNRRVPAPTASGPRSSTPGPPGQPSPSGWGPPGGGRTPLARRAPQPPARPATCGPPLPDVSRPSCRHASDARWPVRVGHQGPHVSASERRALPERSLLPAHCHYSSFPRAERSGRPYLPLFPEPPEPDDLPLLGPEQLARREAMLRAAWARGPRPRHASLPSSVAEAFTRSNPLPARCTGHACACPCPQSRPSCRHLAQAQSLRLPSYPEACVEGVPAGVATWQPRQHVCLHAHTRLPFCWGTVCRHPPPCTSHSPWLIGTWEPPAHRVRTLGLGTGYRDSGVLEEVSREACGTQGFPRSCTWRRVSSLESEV
# T2 sequence (Q62645 28-1323, other chains not shown): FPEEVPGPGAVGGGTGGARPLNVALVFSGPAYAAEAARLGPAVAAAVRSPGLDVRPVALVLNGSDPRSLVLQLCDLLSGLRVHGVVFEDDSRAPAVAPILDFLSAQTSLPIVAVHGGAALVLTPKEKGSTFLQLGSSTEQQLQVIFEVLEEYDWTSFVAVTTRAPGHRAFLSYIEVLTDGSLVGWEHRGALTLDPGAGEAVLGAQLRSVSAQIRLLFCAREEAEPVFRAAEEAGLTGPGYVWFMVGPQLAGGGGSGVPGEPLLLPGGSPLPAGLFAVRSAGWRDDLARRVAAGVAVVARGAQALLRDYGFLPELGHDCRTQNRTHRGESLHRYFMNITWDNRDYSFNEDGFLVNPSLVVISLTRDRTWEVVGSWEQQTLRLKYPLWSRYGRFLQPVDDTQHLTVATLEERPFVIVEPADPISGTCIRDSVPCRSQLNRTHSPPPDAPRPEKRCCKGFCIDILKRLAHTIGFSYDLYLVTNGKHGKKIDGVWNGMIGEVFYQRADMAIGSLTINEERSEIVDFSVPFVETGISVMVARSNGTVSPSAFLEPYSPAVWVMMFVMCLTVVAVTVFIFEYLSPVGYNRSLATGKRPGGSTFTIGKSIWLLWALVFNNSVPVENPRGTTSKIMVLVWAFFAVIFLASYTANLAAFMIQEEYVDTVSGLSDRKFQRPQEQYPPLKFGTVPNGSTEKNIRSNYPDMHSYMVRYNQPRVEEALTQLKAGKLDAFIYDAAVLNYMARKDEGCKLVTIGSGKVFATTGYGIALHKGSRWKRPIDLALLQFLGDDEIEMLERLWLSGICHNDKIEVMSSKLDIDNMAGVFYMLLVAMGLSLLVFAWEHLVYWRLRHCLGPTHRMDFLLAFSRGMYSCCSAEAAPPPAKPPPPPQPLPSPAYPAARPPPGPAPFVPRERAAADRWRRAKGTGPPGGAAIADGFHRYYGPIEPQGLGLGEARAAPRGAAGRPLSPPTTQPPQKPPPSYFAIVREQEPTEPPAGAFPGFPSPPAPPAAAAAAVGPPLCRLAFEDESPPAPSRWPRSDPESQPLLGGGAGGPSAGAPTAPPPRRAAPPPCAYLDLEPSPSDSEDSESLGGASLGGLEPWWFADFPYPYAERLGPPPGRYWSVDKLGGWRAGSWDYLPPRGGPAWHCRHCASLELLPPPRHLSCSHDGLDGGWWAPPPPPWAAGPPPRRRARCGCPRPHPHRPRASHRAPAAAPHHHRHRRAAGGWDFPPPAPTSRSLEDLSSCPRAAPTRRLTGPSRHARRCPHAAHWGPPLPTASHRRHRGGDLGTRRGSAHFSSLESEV
# Sequence of NR1/NR2C receptors (Rattus norvegicus, UniProt P35439+Q00961) (Q00961 20-1237, other chains not shown): as the sequence (Q00961 20-1237, other chains not shown) above
smiles,measurement,setting,value
"COc1ccc(OCC2c3cc(OC)c(OC)cc3CCN2C(=O)c2cccc(Cl)c2)cc1 (stereo not drawn) [CIQ, (3-chlorophenyl)(6,7-dimethoxy-1-((4-methoxyphenoxy)methyl)-3,4-dihydroisoquinolin-2(1H)-yl)methanone]",EC50,[1],3000 nM
same,response in the presence of CIQ vs control,NR1/NR2C receptors [2]; [28],significantly different than in control
same,potentiation of NMDA-activated response,NR1/NR2C receptors [2]; 100 μM NMDA and 30 μM glycine,233 ± 13%
same,effect of CIQ alone (no agonist),NR1/NR2C receptors [2]; CIQ alone,no effect
same,maximal potentiation,NR1/NR2C receptors [2]; response without CIQ = 100%,197 ± 20%
same,CIQ sensitivity of chimeric receptor,[3],potentiated; also recorded: CIQ sensitivity is observed
same,CIQ sensitivity of chimeric receptor,[4],CIQ sensitivity is observed
same,CIQ activity at chimeric receptor,[5],did not show any activity
same,EC50,NR1/NR2C receptors [6],1700 nM
same,response compared to control,NR1/NR2C receptors [7]; [29],180%
same,maximal potentiation,NR1/NR2C receptors [7]; HEK 293 cells,180%
same,de-potentiation time constant tau,NR1/NR2C receptors [7]; [30],4.0 ± 0.7 s
same,10-90% rise time of receptor response,NR1/NR2C receptors [7]; [31],9 ± 1 ms
same,effect on the reversal potential,NR1/NR2D receptors [8],no detectable effect
same,"mean shut time, % of control",NR1/NR2D receptors [8],75 ± 8 % of control
same,"closed duration area, component 1",NR1/NR2D receptors [8]; composite of 6 patches,37
same,"closed duration area, component 2",NR1/NR2D receptors [8]; composite of 6 patches,18
same,"closed duration area, component 3",NR1/NR2D receptors [8]; composite of 6 patches,12
same,"closed duration area, component 4",NR1/NR2D receptors [8]; composite of 6 patches,18
same,"closed duration area, component 5",NR1/NR2D receptors [8]; composite of 6 patches,15
same,"closed duration area, component 6",NR1/NR2D receptors [8]; composite of 6 patches,0.75
same,"closed duration time constant, component 1",NR1/NR2D receptors [8]; composite of 6 patches,0.026 ms
same,"closed duration time constant, component 2",NR1/NR2D receptors [8]; composite of 6 patches,0.23 ms
same,"closed duration time constant, component 3",NR1/NR2D receptors [8]; composite of 6 patches,0.73 ms
same,"closed duration time constant, component 4",NR1/NR2D receptors [8]; composite of 6 patches,3.4 ms
same,"closed duration time constant, component 5",NR1/NR2D receptors [8]; composite of 6 patches,12 ms
same,"closed duration time constant, component 6",NR1/NR2D receptors [8]; composite of 6 patches,39 ms
same,"open period time constant 1, composite distribution",NR1/NR2D receptors [8]; composite of 6 patches,0.036 ms
same,"open period time constant 2, composite distribution",NR1/NR2D receptors [8]; composite of 6 patches,0.63 ms
same,effect on receptor response,GluR3 receptor,not significantly different than control
same,effect on triheteromeric receptor response,[9],significantly potentiated
same,effect on receptor response,GluR2 receptor,not significantly different than control
same,CIQ sensitivity of chimeric receptor,[10],CIQ sensitivity is observed
same,CIQ sensitivity of chimeric receptor,[11],CIQ sensitivity is observed
same,potentiation of NMDA-activated responses,[12],did not potentiate
same,solubility,[13],20 µM
same,effect on receptor response,NR1/NR2B receptors [14]; 10 μM CIQ,did not alter; also recorded: without affecting
same,potentiation of NMDA-activated response,NR1/NR2B receptors [14]; 100 μM NMDA plus 30 μM glycine,did not potentiate
same,response in the presence of CIQ vs control,NR1/NR2D receptors [15]; [28],significantly different than in control
same,potentiation of NMDA-activated response,NR1/NR2D receptors [15]; 100 μM NMDA and 30 μM glycine,205 ± 5%
same,effect of CIQ alone (no agonist),NR1/NR2D receptors [15]; CIQ alone,no effect
same,"potentiation of receptor response, % of control","NR1/NR2D receptors [15]; CIQ dissolved in 2-hydroxypropyl-beta-cyclodextrin solution (1% w/v), no DMSO",144 ± 3 % of control
same,maximal potentiation,NR1/NR2D receptors [15]; response without CIQ = 100%,211 ± 7%
same,change of CIQ potentiation vs NR2D,[16],attenuated; also recorded: reduced level of potentiation
same,potentiation of NMDA-activated responses compared to control,"[17]; 20 μM CIQ bath applied, −60 mV, 0.2 mM Mg2+",230 ± 29%
same,"NMDA-activated response after wash, of control amplitude",[17]; after washout of 20 μM CIQ,102 ± 11%
same,effect on receptor response,GluR4 receptor,not significantly different than control
same,potentiation of mutant receptor response,[18],135 ± 5%
same,effect on receptor response,NR1/NR2A* receptors,no detectable effect; also recorded: not potentiated
same,effect on triheteromeric receptor response,[19],not potentiated; also recorded: no effect
same,CIQ potentiation of mutant receptor,NR1/NR2D(T592I),completely abolished; also recorded: no longer potentiated
same,reduction in the response,NR1/NR2B receptors [20],25%
same,change of CIQ potentiation vs NR2D,[21],did not significantly alter
same,effect on receptor response,kainate (GluR6) receptor,did not alter; also recorded: not significantly different than control
same,CIQ sensitivity of chimeric receptor,[22],CIQ sensitivity is observed
same,effect on triheteromeric receptor response,[23],significantly potentiated
same,effect on receptor response,NR1/NR2A receptors [24],no effect
same,response compared to control,NR1/NR2D receptors [25]; [29],180%
same,potentiation of response to NMDA at 33°C,"NR1/NR2D receptors [25]; 10 μM CIQ, 33°C, HEK 293 cells",200±20%
same,maximal potentiation,NR1/NR2D receptors [25]; HEK 293 cells,180%
same,de-potentiation time constant tau,NR1/NR2D receptors [25]; [30],6.5 ± 0.7 s
same,10-90% rise time of receptor response,NR1/NR2D receptors [25]; [31],15 ± 2 ms
same,effect on receptor response,AMPA (GluR1) receptor,did not alter; also recorded: not significantly different than control
same,CIQ activity at chimeric receptor,[26],did not show any activity
same,effect on receptor response,NR1/NR2A receptors [27]; 10 μM CIQ,did not alter; also recorded: without affecting
same,potentiation of NMDA-activated response,NR1/NR2A receptors [27]; 100 μM NMDA plus 30 μM glycine,did not potentiate
same,effect on receptor response,GluR5 receptor,not significantly different than control
"N[C@@H](CCC(=O)O)C(=O)O [Glutamate, reference compound]",Slope,NR1/NR2C receptors [2],1.5
same,EC50,NR1/NR2C receptors [2]; [32],620 ± 40 nM
same,EC50,NR1/NR2C receptors [2]; [33],740 ± 60 nM
same,Slope,NR1/NR2D receptors [15],1.5
same,EC50,NR1/NR2D receptors [15]; [32],240 ± 20 nM
same,EC50,NR1/NR2D receptors [15]; [33],300 ± 30 nM
"NCC(=O)O [Glycine, reference compound]",Slope,NR1/NR2C receptors [2],1.5
same,Slope,NR1/NR2D receptors [15],1.5

# — paper PMC3113701 (Nature communications, 2010)
